{
  "source": "PubChem BioAssay AID1963971",
  "about": "(Molecular Pharmacology Branch, DTP, NCI, 2024);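 note: spheroids exposed to compounds for seven days before read-out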",
  "test_system": "953936-095-R-J2-PDC spheroids with HUVEC/MSC, viability",
  "experiment": "Anticancer human tumor 953936-095-R-J2-PDC patient-derived cervical squamous cell carcinoma cell line growth inhibition [PI3K]",
  "conditions": "for IC50: curve of first compound; for viability, T/C: stronger effect = lower value",
  "summary_of_the_method": "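Multi-cell spheroids combine tumor cells with HUVEC and human MSCs, treated with targeted agents alone or with inavolisib, alpelisib, duvelisib or copanlisib. Concentrations fall in half-log steps from at or near clinical Cmax, or from 10 microM where Cmax is unknown; viability read-out.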",
  "data": [
    {"smiles": "CC1(C)CCC(Nc2ncc(C(F)(F)F)c(-c3c[nH]c4c(P(C)(C)=O)c(C#N)ccc34)n2)CN1", "note": "(configuration not stated) + CC(Nc1ncnc2nc[nH]c12)c1cc2cccc(Cl)c2c(=O)n1-c1ccccc1", "values": [
      {"measurement": "IC50", "setting": "second compound 0.0316 µM", "result": 3.67, "unit": "µM"},
      {"measurement": "IC50", "setting": "second compound 0.1 µM", "result": 3.37, "unit": "µM"},
      {"measurement": "IC50", "setting": "second compound 0.316 µM", "result": 3.39, "unit": "µM"},
      {"measurement": "IC50", "setting": "second compound 1 µM", "result": 1.78, "unit": "µM"},
      {"measurement": "IC50", "setting": "second compound 3.16 µM", "result": "< 0.0316", "unit": "µM"},
      {"measurement": "IC50", "setting": "second compound 10 µM", "result": "< 0.0316", "unit": "µM"},
      {"measurement": "viability, T/C", "setting": "second compound 0.0316 µM, first compound 0.0316 µM", "result": 52.6, "unit": "%"},
      {"measurement": "viability, T/C", "setting": "second compound 0.0316 µM, first compound 0.1 µM", "result": 55.8, "unit": "%"},
      {"measurement": "viability, T/C", "setting": "second compound 0.0316 µM, first compound 0.316 µM", "result": 57.6, "unit": "%"},
      {"measurement": "viability, T/C", "setting": "second compound 0.0316 µM, first compound 1 µM", "result": 61.3, "unit": "%"},
      {"measurement": "viability, T/C", "setting": "second compound 0.0316 µM, first compound 3.16 µM", "result": 56.1, "unit": "%"},
      {"measurement": "viability, T/C", "setting": "second compound 0.0316 µM, first compound 10 µM", "result": 7.92, "unit": "%"},
      {"measurement": "viability, T/C", "setting": "second compound 0.1 µM, first compound 0.0316 µM", "result": 52.2, "unit": "%"},
      {"measurement": "viability, T/C", "setting": "second compound 0.1 µM, first compound 0.1 µM", "result": 53.5, "unit": "%"},
      {"measurement": "viability, T/C", "setting": "second compound 0.1 µM, first compound 0.316 µM", "result": 53.7, "unit": "%"},
      {"measurement": "viability, T/C", "setting": "second compound 0.1 µM, first compound 1 µM", "result": 62.5, "unit": "%"},
      {"measurement": "viability, T/C", "setting": "second compound 0.1 µM, first compound 3.16 µM", "result": 51.9, "unit": "%"},
      {"measurement": "viability, T/C", "setting": "second compound 0.1 µM, first compound 10 µM", "result": 6.89, "unit": "%"},
      {"measurement": "viability, T/C", "setting": "second compound 0.316 µM, first compound 0.0316 µM", "result": 60.1, "unit": "%"},
      {"measurement": "viability, T/C", "setting": "second compound 0.316 µM, first compound 0.1 µM", "result": 53.2, "unit": "%"},
      {"measurement": "viability, T/C", "setting": "second compound 0.316 µM, first compound 0.316 µM", "result": 44.6, "unit": "%"},
      {"measurement": "viability, T/C", "setting": "second compound 0.316 µM, first compound 1 µM", "result": 49.9, "unit": "%"},
      {"measurement": "viability, T/C", "setting": "second compound 0.316 µM, first compound 3.16 µM", "result": 56.3, "unit": "%"},
      {"measurement": "viability, T/C", "setting": "second compound 0.316 µM, first compound 10 µM", "result": 6.08, "unit": "%"},
      {"measurement": "viability, T/C", "setting": "second compound 1 µM, first compound 0.0316 µM", "result": 59.9, "unit": "%"},
      {"measurement": "viability, T/C", "setting": "second compound 1 µM, first compound 0.1 µM", "result": 49.7, "unit": "%"},
      {"measurement": "viability, T/C", "setting": "second compound 1 µM, first compound 0.316 µM", "result": 49.2, "unit": "%"},
      {"measurement": "viability, T/C", "setting": "second compound 1 µM, first compound 1 µM", "result": 46.3, "unit": "%"},
      {"measurement": "viability, T/C", "setting": "second compound 1 µM, first compound 3.16 µM", "result": 49.2, "unit": "%"},
      {"measurement": "viability, T/C", "setting": "second compound 1 µM, first compound 10 µM", "result": 5.38, "unit": "%"},
      {"measurement": "viability, T/C", "setting": "second compound 3.16 µM, first compound 0.0316 µM", "result": 45.9, "unit": "%"},
      {"measurement": "viability, T/C", "setting": "second compound 3.16 µM, first compound 0.1 µM", "result": 46.7, "unit": "%"},
      {"measurement": "viability, T/C", "setting": "second compound 3.16 µM, first compound 0.316 µM", "result": 49.3, "unit": "%"},
      {"measurement": "viability, T/C", "setting": "second compound 3.16 µM, first compound 1 µM", "result": 44.5, "unit": "%"},
      {"measurement": "viability, T/C", "setting": "second compound 3.16 µM, first compound 3.16 µM", "result": 45.7, "unit": "%"},
      {"measurement": "viability, T/C", "setting": "second compound 3.16 µM, first compound 10 µM", "result": 3.11, "unit": "%"},
      {"measurement": "viability, T/C", "setting": "second compound 10 µM, first compound 0.0316 µM", "result": 38, "unit": "%"},
      {"measurement": "viability, T/C", "setting": "second compound 10 µM, first compound 0.1 µM", "result": 36.5, "unit": "%"},
      {"measurement": "viability, T/C", "setting": "second compound 10 µM, first compound 0.316 µM", "result": 38.4, "unit": "%"},
      {"measurement": "viability, T/C", "setting": "second compound 10 µM, first compound 1 µM", "result": 39.6, "unit": "%"},
      {"measurement": "viability, T/C", "setting": "second compound 10 µM, first compound 3.16 µM", "result": 42.1, "unit": "%"},
      {"measurement": "viability, T/C", "setting": "second compound 10 µM, first compound 10 µM", "result": 1.76, "unit": "%"}
    ]}
  ]
}
